Measured values from patent US4619925A, “3-Propenyl cephalosporin derivatives” (priority 1985, dated 1986).
Converted amounts (≈) assume the structure as drawn.

Legend:
Mouse blood levels = details: mouse; for half-life: T 1/2
Source text: Table 3 contains comparative blood level data for mice treated orally and intramuscularly with the hydroxyphenylglycyl derivatives.

H. influenzae A9833 = test: In vitro activity against fastidious bacteria; assay type: cell-based; details: Haemophilus influenzae; H. influenzae A9833; ampicillin-sensitive (ABPC-S); read-out: MIC
Source text: (§1) Table 5 contains comparative data for in vitro antibacterial activity against fastidious bacteria.

H. influenzae A22482 = test: In vitro activity against fastidious bacteria; assay type: cell-based; details: Haemophilus influenzae; H. influenzae A22482; ampicillin-sensitive (ABPC-S); read-out: MIC
Source text: as §1

H. influenzae A22481 = test: In vitro activity against fastidious bacteria; assay type: cell-based; details: Haemophilus influenzae, ampicillin-resistant (ABPC-R)
Source text: as §1

N. gonorrheae A20143 = test: In vitro activity against fastidious bacteria; assay type: cell-based; details: N. gonorrheae A20143; read-out: MIC
Source text: as §1

S. pneumoniae Type I = test: In vitro activity against fastidious bacteria; assay type: cell-based; details: Streptococcus pneumoniae; S. pneumoniae Type I; read-out: MIC
Source text: as §1

N. gonorrheae A15112 = test: In vitro activity against fastidious bacteria; assay type: cell-based; details: N. gonorrheae A15112; read-out: MIC
Source text: as §1

N. meningitidis A21487 = test: In vitro activity against fastidious bacteria; assay type: cell-based; details: Neisseria meningitidis; N. meningitidis A21487; read-out: MIC
Source text: as §1

H. influenzae A22157 = test: In vitro activity against fastidious bacteria; assay type: cell-based; details: Haemophilus influenzae, ampicillin-resistant (ABPC-R)
Source text: as §1

N. gonorrheae A20155 = test: In vitro activity against fastidious bacteria; assay type: cell-based; details: N. gonorrheae A20155; read-out: MIC
Source text: as §1

N. gonorrheae A20154 = test: In vitro activity against fastidious bacteria; assay type: cell-based; details: N. gonorrheae A20154; read-out: MIC
Source text: as §1

N. meningitidis A21497 = test: In vitro activity against fastidious bacteria; assay type: cell-based; details: Neisseria meningitidis; N. meningitidis A21497; read-out: MIC
Source text: as §1

N. meningitidis A20049 = test: In vitro activity against fastidious bacteria; assay type: cell-based; details: Neisseria meningitidis; N. meningitidis A20049; read-out: MIC
Source text: as §1

S. pyogenes A20065 = test: In vitro activity against fastidious bacteria; assay type: cell-based; details: Streptococcus pyogenes; S. pyogenes A20065; read-out: MIC
Source text: as §1

S. pyogenes A15040 = test: In vitro activity against fastidious bacteria; assay type: cell-based; details: Streptococcus pyogenes; S. pyogenes A15040; read-out: MIC
Source text: as §1

H. influenzae A22483 = test: In vitro activity against fastidious bacteria; assay type: cell-based; details: Haemophilus influenzae; H. influenzae A22483; ampicillin-sensitive (ABPC-S); read-out: MIC
Source text: as §1

S. pyogenes A20201 = test: In vitro activity against fastidious bacteria; assay type: cell-based; details: Streptococcus pyogenes; S. pyogenes A20201; read-out: MIC
Source text: as §1

S. pyogenes s-23 = test: In vitro activity against fastidious bacteria; assay type: cell-based; details: Streptococcus pyogenes, S23; S. pyogenes s-23; read-out: MIC
Source text: as §1

S. pneumoniae Type II = test: In vitro activity against fastidious bacteria; assay type: cell-based; details: Streptococcus pneumoniae; S. pneumoniae Type II; read-out: MIC
Source text: as §1

H. influenzae A22491 = test: In vitro activity against fastidious bacteria; assay type: cell-based; details: Haemophilus influenzae, ampicillin-resistant (ABPC-R)
Source text: as §1

H. influenzae A20193 = test: In vitro activity against fastidious bacteria; assay type: cell-based; details: Haemophilus influenzae; H. influenzae A20193; ampicillin-sensitive (ABPC-S); read-out: MIC
Source text: as §1

S. pneumoniae A9585 = test: In vitro activity against fastidious bacteria; assay type: cell-based; details: Streptococcus pneumoniae; S. pneumoniae A9585; read-out: MIC
Source text: as §1

S. pyogenes A9604 = test: In vitro activity against fastidious bacteria; assay type: cell-based; details: Streptococcus pyogenes; S. pyogenes A9604; read-out: MIC
Source text: as §1

H. influenzae A9729 = test: In vitro activity against fastidious bacteria; assay type: cell-based; details: Haemophilus influenzae; H. influenzae A9729; ampicillin-sensitive (ABPC-S); read-out: MIC
Source text: as §1

H. influenzae A20177 = test: In vitro activity against fastidious bacteria; assay type: cell-based; details: Haemophilus influenzae; H. influenzae A20177; ampicillin-sensitive (ABPC-S); read-out: MIC
Source text: as §1

S. pneumoniae A20759 = test: In vitro activity against fastidious bacteria; assay type: cell-based; details: Streptococcus pneumoniae; S. pneumoniae A20759; read-out: MIC
Source text: as §1

S. pyogenes Dick = test: In vitro activity against fastidious bacteria; assay type: cell-based; details: Streptococcus pyogenes; S. pyogenes Dick; read-out: MIC
Source text: as §1

[1] = test system: Gn-Ia organisms (Gram-negative bacteria sensitive to ampicillin and cephalothin); test: In vitro activity, agar dilution, group of five strains; assay type: cell-based
Source text: Each of these groups of organisms is constituted of five individual strains of microorganism. The Gp-Ia organisms are Gram-positive staphylococci which are sensitive to penicillin. The Gp-Ib organisms are Gram-positive staphylococci which are resistant to penicillin and produce penicillinase. The Gn-Ia organisms are Gram-negative bacteria which are sensitive to ampicillin and cephalothin. The Gn-Ib organisms are Gram-negative bacteria which are resistant to ampicillin and cephalothin.

## C/C=C\C1=C(C(=O)O)N2C(=O)C(NC(=O)[C@H](N)c3ccc(O)cc3)[C@H]2SC1 (stereo partly drawn) [BMY-28100, 7-[D-2-amino-2-(4-hydroxyphenyl)acetamido]-3-[(Z)-1-propen-1-yl]-3-cephem-4-carboxylic acid]
Mouse blood levels; blood, im, 20 mg/kg
  concentration at 10 min: 14000 ng/mL
  concentration at 20 min: 15000 ng/mL
  concentration at 0.5 h: 12000 ng/mL
  concentration at 40 min: 8500 ng/mL
  concentration at 50 min: 7500 ng/mL
  concentration at 1 h: 5400 ng/mL
  concentration at 1.5 h: 2500 ng/mL
  concentration at 2 h: 1600 ng/mL
Mouse blood levels; blood, po, 20 mg/kg
  concentration at 0.5 h: 9300 ng/mL
  concentration at 1 h: 6900 ng/mL
  concentration at 2 h: 4200 ng/mL
  concentration at 3 h: 2500 ng/mL
  concentration at 4 h: 970 ng/mL
  concentration at 5 h: 810 ng/mL
  concentration at 6 h: 650 ng/mL
  concentration at 7 h: 340 ng/mL
Mouse blood levels; blood, po, 100 mg/kg
  concentration at 0.5 h: 33000 ng/mL
  concentration at 1 h: 17000 ng/mL
  concentration at 2 h: 6500 ng/mL
  concentration at 3 h: 4500 ng/mL
  concentration at 4 h: 3300 ng/mL
  concentration at 5 h: 2700 ng/mL
  concentration at 6 h: 2500 ng/mL
  concentration at 7 h: 1700 ng/mL
Mouse blood levels; in vivo, im, 20 mg/kg
  AUC: 13000 ng·h/mL
  half-life: 0.52 h
Mouse blood levels; in vivo, po, 20 mg/kg
  Cmax: 12000 ng/mL
  T 1/2: 2.3 h
  AUC: 20000 ng·h/mL
  half-life: 1.4 h
Mouse blood levels; in vivo, po, 100 mg/kg
  AUC: 51000 ng·h/mL
  half-life: 2.1 h
H. influenzae A9833
  MIC: 0.8 µg/mL (≈ 2.05 µM)
H. influenzae A22482
  MIC: 0.8 µg/mL (≈ 2.05 µM)
H. influenzae A22481
  MIC: 0.8 µg/mL (≈ 2.05 µM)
N. gonorrheae A20143
  MIC: 0.8 µg/mL (≈ 2.05 µM)
S. pneumoniae Type I
  MIC: 0.1 µg/mL (≈ 0.257 µM)
N. gonorrheae A15112
  MIC: 0.8 µg/mL (≈ 2.05 µM)
N. meningitidis A21487
  MIC: 0.4 µg/mL (≈ 1.03 µM)
H. influenzae A22157
  MIC: 0.8 µg/mL (≈ 2.05 µM)
N. gonorrheae A20155
  MIC: 0.8 µg/mL (≈ 2.05 µM)
N. gonorrheae A20154
  MIC: 0.8 µg/mL (≈ 2.05 µM)
N. meningitidis A21497
  MIC: 0.4 µg/mL (≈ 1.03 µM)
N. meningitidis A20049
  MIC: 0.4 µg/mL (≈ 1.03 µM)
S. pyogenes A20065
  MIC: 0.05 µg/mL (≈ 0.128 µM)
S. pyogenes A15040
  MIC: 0.05 µg/mL (≈ 0.128 µM)
H. influenzae A22483
  MIC: 0.8 µg/mL (≈ 2.05 µM)
S. pyogenes A20201
  MIC: 0.05 µg/mL (≈ 0.128 µM)
S. pyogenes s-23
  MIC: 0.05 µg/mL (≈ 0.128 µM)
S. pneumoniae Type II
  MIC: 0.1 µg/mL (≈ 0.257 µM)
H. influenzae A22491
  MIC: 0.8 µg/mL (≈ 2.05 µM)
H. influenzae A20193
  MIC: 0.8 µg/mL (≈ 2.05 µM)
S. pneumoniae A9585
  MIC: 0.1 µg/mL (≈ 0.257 µM)
S. pyogenes A9604
  MIC: 0.05 µg/mL (≈ 0.128 µM)
H. influenzae A9729
  MIC: 0.8 µg/mL (≈ 2.05 µM)
H. influenzae A20177
  MIC: 0.8 µg/mL (≈ 2.05 µM)
S. pneumoniae A20759
  MIC: 0.4 µg/mL (≈ 1.03 µM)
S. pyogenes Dick
  MIC: 0.05 µg/mL (≈ 0.128 µM)
[1]
  activity relative to cephalexin and cefaclor: more active than cephalexin and slightly better than cefaclor
